# Laboratory results from patent publication US9237744B2, “Preservative solution for cells, tissues and organs containing rare sugar and preservative method thereof” (NATIONAL UNIVERSITY CORPORATION KAGAWA UNIVERSITY, priority 2004, dated 2016).
# Columns and labels:
# ICAM-1 mRNA = test: Kidney preservation in UW solution at 4° C., ICAM-1 mRNA by northern blot; parameters: species or system rat; conditions: D-allose 5 mg/ml in UW solution, clearly observed after 12 hours and 24 hours (FIG. 10)
# Protocol: Object: male rats, 200 g to 280 g Preparations of experiment: A rat is fasted 12 hours before the experiment. After the rat is anesthetized by intraperitoneal administration of nenbutal, the stomach is shaved with an electric razor, cleaned with ether, and cut open. The abdominal aorta upper the renal artery is clamped. The UW solution is adapted to be perfused from the abdominal aorta under the renal artery. Grouping: Control group: UW solution only, D-allose group: D-allose is added to the UW solution at a concentration of 5 mg/ml. Experimental method: In the control group and the D-allose group, the kidney is withdrawn after perfusion of the UW solution in each group, put in the UW solution of each of the control group and the D-allose group, and preserved at 4° C. in pre or for 12, 24, 48 or 72 hours. Estimation: Expression of detrimental factor ICAM-1 and regeneration factor EGF in mRNA was examined by northern blot.
# [1] = tested on: Hela, OVCAR-3, HaCaT, HFB and NIH3T3 cells; test: Cell growth after thawing of cells freeze-preserved at optimum concentrations, MTT assay (Example 2); assay type: cell-based, human, mouse
# Protocol: 1. Cells used: Hela (human cervical cancer), OVCAR-3 (human ovarian cancer), HaCaT (human skin keratinocyte), HFB (human fibroblast) and NIH3T3 (mouse fibroblast). Saccharides D-allose and the like were added to culture medium, Cell Banker (commercially available preservative solution) and DMSO at concentrations of 0.2, 0.4, 0.6, 0.8 and 1M. Monosaccharides such as D-glucose, D-fructose, D-mannose and D-galactose which are present in nature in large quantities and D-allose, D-altrose, D-psicose, L-psicose, D-sorbose, L-sorbose, D-tagatose, L-tagatose and L-fructose as rare sugars were used. Further, trehalose as disaccharide was used. The cells frozen with D-allose were freeze-preserved at −80° C. and in liquid nitrogen for 24 hours, 1 week and 4 weeks. 2) Cell growth: The cells were freeze-preserved with D-allose and trehalose at optimum concentrations for 24 hours, thawed, and spread on a 96-well plate such that the concentration was 0.5-1×10^4 cells/well/0.1 ml. After a prescribed period of time, the cell growth was measured by MTT assay.
# [2] = tested on: NIH3T3 (mouse fibroblast); test: Cell growth after thawing of freeze-preserved cells, MTT assay (Example 1); assay type: cell-based; conditions: same experiment as with HFB
# Protocol: (§1) 1. Cells used: Hela (human cervical cancer), OVCAR-3 (human ovarian cancer), HuH-7 (human liver cancer), HaCaT (human skin keratinocyte), HFB (human fibroblast) and NIH3T3 (mouse fibroblast). Saccharides D-allose and the like were added to culture medium, Cell Banker (commercially available preservative solution) and DMSO at concentrations of 25 mM and 50 mM. Monosaccharides such as D-glucose, D-fructose, D-mannose and D-galactose which are present in nature in large quantities and D-allose, D-psicose, D-altrose, allitol, D-talitol and L-sorbose as rare sugars were used. Further, trehalose as disaccharide was used. The cells were preserved for 24 hours by being frozen at −80° C. 2) Cell growth: One day later, the cells were thawed, and 0.25˜2×10^4 cells/well were spread on 96-well plate with 0.1 mL medium. After a prescribed period of time, the cell growth was measured by MTT assay.
# HFB (human fibroblast) = test: as above; assay type: cell-based; conditions: culture medium plus sugar, in comparison with other cases (FIG. 2)
# Protocol: as §1
# [3] = tested on: NIH3T3, OVCAR-3, HaCaT and HFB cells; test: Cell preservation with DMSO plus rare sugar, growth after thawing (Example 1); assay type: cell-based, human, mouse; conditions: DMSO decreased to 1%, sub-optimal condition (FIG. 4, FIG. 5)
# Protocol: as §1, with “assay. 4) Since DMSO (dimethyl sulfoxide) is also commonly added to culture medium at a rate of 10% and used in freeze-preservation, the effect of rare sugar was examined in the system of DMSO. The difference in effect of rare sugar is hardly observed in a system using 10% DMSO, the effect of cell preservation was comparatively examined under a sub-optimal condition by decreasing the concentration of DMSO to 1%. NIH3T3, OVCAR-3, HaCaT and HFB cells and the like were used. […]” for “assay.”
# human sperms = test: Movement rate of frozen and thawed sperms, visual observation with Makler Counting Chamber; assay type: cell-based; conditions: KS-II solution with D-allose alone versus glucose only, liquid nitrogen 1 month, P=0.0469 (FIG. 16)
# Protocol: Semens of ten healthy men who were 24 to 44 years old (mean: 29.9) with normal semens were used.
# The semen was manually collected after abstinence for 3 to 5 days, liquefied at room temperature, and then washed and concentrated by a 80% Percoll liquid agitation density gradient method. The resulting sperm turbid solution (0.2 ml) and the freeze-preservative solution were mixed in equal amounts, and the mixture was charged into a freezing tube (serum tube, Sumitomo Bakelite), frozen by a liquid nitrogen vapor freezing method, and then preserved in a liquid nitrogen tank. The freeze-preservative solution (refer to FIG. 14) was used such that the mixing amounts of D-allose and D-glucose were changed (A group=1:0, B group=3:1, C group=1:1, D group=1:3, E group=0:1) without changing the number of moles of the sugar in a KS-II sperm preservative solution. One month later, the frozen sperms were thawed in warm water (30° C.) with shaking. Further, for removal of the freeze-preservative solution and reconcentration, the density gradient centrifugation method was conducted, and the resulting sperm floating solution was examined.
# As the examination method, the sperm movement rate was measured by a visual observation method with Makler Counting Chamber and C-IMAGING SYSTEMS, and the survival rate was measured by 0.5% Eosin Y dying. […]
smiles,measurement,setting,value
O=C[C@H](O)[C@H](O)[C@H](O)[C@H](O)CO [D-allose],expression of ICAM-1 mRNA during kidney preservation,ICAM-1 mRNA,reduced
same,growth rate of cells after thawing,"[1]; freeze-preserved 24 hours at optimum concentration, versus other cases (FIG. 8)",higher in growth rate
same,functional impairment of frozen cells,[1]; versus commercially available Cell Banker cell preservative solution,less impaired functionally
same,growth rate of cells after thawing,[2],the same results were obtained
same,growth rate of cells after thawing,HFB (human fibroblast),growth rate was high
same,effect of preservation with DMSO,[3],improved
same,movement rate of thawed sperms,human sperms,high in movement rate of thawed sperms in the eight of nine cases
